Data published in patent US8465726B2, “Stilbene derivatives and their use for binding and imaging amyloid plaques” (The Trustees of the University of Pennsylvania, priority 2004, dated 2013).

Legend:
[1] = Organ distribution in normal mice after iv injection; assay type: in vivo; conditions: ICR mice
Protocol: The organs of interest were removed and weighed, and the radioactivity was assayed for radioactivity content with an automatic gamma counter. The percentage dose per organ was calculated by a comparison of the tissue counts to suitably diluted aliquots of the injected material. Total activities of blood were calculated under the assumption that they were 7% of the total body weight. The % dose/g of samples was calculated by comparing the sample counts with the count of the diluted initial dose.

[2] = tested on: amyloid deposits / Aβ plaques in the brain; conditions: cited from earlier work

| Biodistribution, Blood ([1]; 2 min after iv injection) [% dose/g] | Biodistribution, Bone ([1]; 2 min after iv injection) [% dose/g] | Biodistribution, Brain ([1]; 2 min after iv injection) [% dose/g] | Biodistribution, Blood ([1]; 30 min after iv injection) [% dose/g] | Biodistribution, Bone ([1]; 30 min after iv injection) [% dose/g] | Biodistribution, Brain ([1]; 30 min after iv injection) [% dose/g] | Biodistribution, Blood ([1]; 1 hr after iv injection) [% dose/g] | Biodistribution, Bone ([1]; 1 hr after iv injection) [% dose/g] | Biodistribution, Brain ([1]; 1 hr after iv injection) [% dose/g] | Biodistribution, Blood ([1]; 2 hr after iv injection) [% dose/g] | Biodistribution, Bone ([1]; 2 hr after iv injection) [% dose/g] | Biodistribution, Brain ([1]; 2 hr after iv injection) [% dose/g] | Compound | accumulation in the frontal cortex ([2]; mild to moderate AD patients, not in age-matched control subjects) | retention in the cortex ([2]; patients with diagnosed mild AD) | relative residence time of the brain region of interest versus the pons ([2]; AD patients versus comparison subjects, PET) |
| --- | --- | --- | --- | --- | --- | --- | --- | --- | --- | --- | --- | --- | --- | --- | --- |
| 4.99 ± 0.38 | 2.24 ± 0.21 | 7.30 ± 1.05 | 4.66 ± 0.06 | 2.29 ± 0.21 | 2.43 ± 0.03 | 2.89 ± 0.11 | 1.66 ± 0.01 | 1.77 ± 0.11 | 2.59 ± 0.18 | 2.35 ± 0.27 | 1.62 ± 0.03 | CNc1ccc(C=Cc2ccc(OCCOCCOCCOCCOCCF)cc2)cc1 [12d, [4-(2-{4-[2-(2-{2-[2-(2-Fluoro-ethoxy)-ethoxy]-ethoxy}-ethoxy)-ethoxy]-phenyl}-vinyl)-phenyl]-methyl-amine] | – | – | – |
| 2.64 ± 0.55 | 1.89 ± 0.25 | 8.14 ± 2.03 | 2.42 ± 0.27 | 1.40 ± 0.11 | 3.00 ± 0.16 | 2.04 ± 0.16 | 1.71 ± 0.23 | 2.60 ± 0.22 | 2.77 ± 0.63 | 2.88 ± 0.07 | 2.14 ± 0.06 | CNc1ccc(C=Cc2ccc(OCCOCCF)cc2)cc1 [12a, [4-(2-{4-[2-(2-Fluoro-ethoxy)-ethoxy]-phenyl}-vinyl)-phenyl]-methyl-amine] | – | – | – |
| 3.22 ± 0.20 | 2.31 ± 0.12 | 6.59 ± 0.19 | 1.88 ± 0.08 | 1.00 ± 0.02 | 1.27 ± 0.03 | 1.81 ± 0.48 | 0.98 ± 0.27 | 1.20 ± 0.10 | 1.60 ± 0.12 | 1.50 ± 0.05 | 1.21 ± 0.06 | CNc1ccc(C=Cc2ccc(OCCOCCOCCOCCF)cc2)cc1 [12c, (4-{2-[4-(2-{2-[2-(2-Fluoro-ethoxy)-ethoxy]-ethoxy}-ethoxy)-phenyl]-vinyl}-phenyl)-methyl-amine] | – | – | – |

Second part, the compound before the results:

| Compound | Biodistribution, Blood ([1]; 2 min after iv injection) [% dose/g] | Biodistribution, Bone ([1]; 2 min after iv injection) [% dose/g] | Biodistribution, Brain ([1]; 2 min after iv injection) [% dose/g] | Biodistribution, Blood ([1]; 30 min after iv injection) [% dose/g] | Biodistribution, Bone ([1]; 30 min after iv injection) [% dose/g] | Biodistribution, Brain ([1]; 30 min after iv injection) [% dose/g] | Biodistribution, Blood ([1]; 1 hr after iv injection) [% dose/g] | Biodistribution, Bone ([1]; 1 hr after iv injection) [% dose/g] | Biodistribution, Brain ([1]; 1 hr after iv injection) [% dose/g] | Biodistribution, Blood ([1]; 2 hr after iv injection) [% dose/g] | Biodistribution, Bone ([1]; 2 hr after iv injection) [% dose/g] | Biodistribution, Brain ([1]; 2 hr after iv injection) [% dose/g] | accumulation in the frontal cortex ([2]; mild to moderate AD patients, not in age-matched control subjects) | retention in the cortex ([2]; patients with diagnosed mild AD) | relative residence time of the brain region of interest versus the pons ([2]; AD patients versus comparison subjects, PET) |
| --- | --- | --- | --- | --- | --- | --- | --- | --- | --- | --- | --- | --- | --- | --- | --- |
| [11CH3]Nc1ccc(/C=C/c2ccc(O)cc2)cc1 [[^11C]SB-13] | – | – | – | – | – | – | – | – | – | – | – | – | high accumulation | – | – |
| [11CH3]Nc1ccc(-c2nc3ccc(O)cc3s2)cc1 [[^11C]6-OH-BTA-1] | – | – | – | – | – | – | – | – | – | – | – | – | – | marked retention | – |
| CC(=C(C#N)C#N)c1ccc2cc(N(C)CCF)ccc2c1 [[^18F]FDDNP] | – | – | – | – | – | – | – | – | – | – | – | – | – | – | significantly higher in AD patients |
| CNc1ccc(C=Cc2ccc(OCCOCCOCC[18F])cc2)cc1 [[^18F]12b, [^18F]{4-[2-(4-{2-[2-(2-Fluoro-ethoxy)-ethoxy]-ethoxy}-phenyl)-vinyl]-phenyl}-methyl-amine] | – | – | – | – | – | – | – | – | – | – | 2.74 | – | – | – | – |
